Laboratory results taken from patent US20170368089A1, “COMPOSITION FOR PREVENTING OR TREATING COLITIS” (UNIVERSITY-INDUSTRY COOPERATION GROUP OF KYUNG HEE …, priority 2012, published 2017).

Legend:
[1] = test system: model animal with acute colitis induced by TNBS; experiment: Acute colitis induced by TNBS in mice, appearance analysis of colon (colon length, macroscopic score), first experiment; format: in vivo, ICR male mice; conditions: Table 3 (group 2); TNBS-treated mice, 10 mg/kg orally, 3 days
Procedure: 4-week ICR male mice (24 to 27 g) were purchased from OrientBio. All the mice were bred under the controlled environmental conditions of 50±10% of humidity and 25±2° C. of temperature, and the lighting was repeatedly on for 12 hours and off for 12 hours. A feed for a standard experiment (Samyang, Korea) was used as a feed, and water was freely taken. For all the experiments, one group was 6 mice. […] Meanwhile, 0.1 ml of normal saline solution was orally administered to the normal group. Since then, from the next day, the sample dissolved in normal saline solution was orally administered in the volume that was decided in advance one time a day for 3 days. At the next day after completing the sample administration, the experimental animals were suffocated to death with carbon dioxide, the colon from appendix to the region just before the anus was removed from the colon region. The scores about the removed colons were estimated by observing the appearances and the lengths of the colons according to the following criteria (Hollenbach, and the like, the criteria about the level of colon in 2005) as listed in Table 1. […] In addition, some of the content in the colon was collected in order to analyze the rumen microorganisms, and then, was stored in a freezer of −80° C. From the tissue of colon, the content in the colon was completely removed and then the tissue of colon was washed with normal saline solution. Since then, some of the tissue was fixed with 4% formaldehyde fixing solution in order to be used as a sample for a histopathological examination, and the rest was stored in a freezer of −80° C. for a molecular biological analysis.

TNF-alpha = TNF-alpha expression in colon tissue (ELISA), TNBS acute colitis, third experiment; format: in vivo, male mice (C57BL/6); conditions: Table 12; TNBS-treated mice, 10 mg/kg orally, 3 days
Procedure: Meanwhile, 0.1 ml of normal saline solution was orally administered to the normal group. Since then, from the next day, the sample dissolved in normal saline solution was orally administered in the volume that was decided in advance one time a day for 3 days. At the next day after completing the sample administration, the experimental animals were suffocated to death with carbon dioxide, and the colon from appendix to the region just before the anus was removed from the colon region. At this time, as a medicine sample, the experiments using the butanol-soluble fraction of the Anemarrhena asphodeloides Bunge extract, Mangiferin, and a combined extract were separately performed at a distance of time, respectively, and the effects of the medicine samples on preventing or treating colitis were reasonably analyzed based on the group supplied with normal saline solution instead of a specific medicine in the model animals with acute colitis induced by TNBS for each of the experiments. […] While the supernatant was stored at −80° C., the expression amounts of IL-1 beta, IL-6, and TNF-alpha, which were proinflammatory cytokines, and the expression amount of IL-10, which was anti-inflammatory cytokine, were measured using a 96-well ELISA plate kits (Pierce Biotechology, Inc., Rockford, Ill., USA).

Question: What does the source list for `Nc1ccc(O)c(C(=O)O)c1` [mesalazine, Mesalazine]?
Answer: Colon length [1]: 7.1 ± 0.46 cm; TNF-α (Percentage to group supplied with normal saline solution after treating TNBS) (TNF-alpha): 36.8%
